Reference: ChEMBL document CHEMBL5614400, “Emerging therapeutics: The imidazo[1,2-b]pyridazine scaffold as a novel drug candidate for eumycetoma, a neglected tropical disease” (Eur J Med Chem, 2024)
pIC50: −log10 of the molar value. ≈ marks a conversion by molar mass, not a printed value.

What was measured:
[1] = tested on: Madurella mycetomatis; test: Antifungal activity against Madurella mycetomatis MM55 by XTT assay; format: functional, organism-based
[2] = tested on: Madurella mycetomatis; test: Antifungal activity against Madurella mycetomatis P1 by XTT assay; format: functional
[3] = tested on: Madurella mycetomatis; test: Antifungal activity against Madurella mycetomatis CBS247.48 by XTT assay; format: functional
[4] = Selectivity index, ratio of IC50 for mouse NIH3T3 cells to IC50 for Madurella mycetomatis MM55; format: toxicity; settings: read-out: Ratio IC50
[5] = tested on: Madurella mycetomatis; test: Antifungal activity against Madurella mycetomatis MM50 by XTT assay; format: functional
[6] = tested on: Madurella mycetomatis; test: Antifungal activity against Madurella mycetomatis I11 by XTT assay; format: functional
[7] = tested on: Madurella mycetomatis; test: Antifungal activity against Madurella mycetomatis SO1 by XTT assay; format: functional
[8] = tested on: Madurella mycetomatis; test: Antifungal activity against Madurella mycetomatis I3 by XTT assay; format: functional
[9] = tested on: Madurella mycetomatis; test: Antifungal activity against Madurella mycetomatis I1 by XTT assay; format: functional
[10] = Cytotoxicity against mouse NIH3T3 cells incubated for 5 days by MTT assay; format: toxicity, cell-based
[11] = tested on: Madurella mycetomatis; test: Antifungal activity against Madurella mycetomatis AL1 by XTT assay; format: functional
[12] = tested on: Madurella mycetomatis; test: Antifungal activity against Madurella mycetomatis Peru72012 by XTT assay; format: functional

SMILES	pIC50 ([1]; Madurella mycetomatis, MM55)	pIC50 [1]	MIC [2]	MIC [3]	selectivity ratio [4]	MIC [5]	MIC [6]	MIC [7]	MIC [8]	MIC [9]	IC50 at 5 days [10]	MIC [11]	MIC [12]	MIC ([1]; Madurella mycetomatis, MM55)
CN1CCN(c2cc(-c3ccsc3)c3nc(-c4ccc(F)cc4)cn3n2)CC1 [listing 1 of 2 here]	5.30	–	–	–	–	–	–	–	–	–	–	–	–	–
CN1CCN(c2cc(-c3cnn(C)c3)c3nc(-c4ccc(F)cc4)cn3n2)CC1 [listing 1 of 2 here]	–	5.02	–	–	–	–	–	–	–	–	–	–	–	–
CN1CCN(c2cc(-c3cccc4[nH]ccc34)c3nc(-c4ccccc4)cn3n2)CC1 [listing 1 of 2 here]	–	5.32	8 µM (≈ 3.27 µg/mL)	16 µM (≈ 6.54 µg/mL)	2.8	16 µM (≈ 6.54 µg/mL)	> 16 µM	16 µM (≈ 6.54 µg/mL)	16 µM (≈ 6.54 µg/mL)	8 µM (≈ 3.27 µg/mL)	9.9 µM	16 µM (≈ 6.54 µg/mL)	8 µM (≈ 3.27 µg/mL)	8 µM (≈ 3.27 µg/mL)
CCC(C)n1ncn(-c2ccc(N3CCN(c4ccc(OCC5COC(Cn6cncn6)(c6ccc(Cl)cc6Cl)O5)cc4)CC3)cc2)c1=O (stereo unspecified) [ITRACONAZOLE]	5.96	–	0.25 µM (≈ 0.176 µg/mL)	2 µM (≈ 1.41 µg/mL)	1.4	1 µM (≈ 0.706 µg/mL)	0.5 µM (≈ 0.353 µg/mL)	0.25 µM (≈ 0.176 µg/mL)	1 µM (≈ 0.706 µg/mL)	8 µM (≈ 5.65 µg/mL)	13.7 µM	0.06 µM (≈ 0.0423 µg/mL)	0.5 µM (≈ 0.353 µg/mL)	0.5 µM (≈ 0.353 µg/mL)
OCCN1CCN(c2cc(-c3cnc(N4CCN(CCO)CC4)nc3)c3nc(-c4ccccc4F)cn3n2)CC1	5.42	–	> 16 µM	> 16 µM	0.8	> 16 µM	> 16 µM	> 16 µM	> 16 µM	16 µM (≈ 8.76 µg/mL)	1.4 µM	> 16 µM	16 µM (≈ 8.76 µg/mL)	8 µM (≈ 4.38 µg/mL)
OCCN1CCN(c2cc(-c3ccsc3)c3nc(-c4ccc(F)cc4)cn3n2)CC1	5.28	–	–	–	–	–	–	–	–	–	–	–	–	–
CN1CCN(c2cc(-c3ccc4cc[nH]c4c3)c3nc(-c4ccc(F)cc4)cn3n2)CC1	5.15	–	–	–	–	–	–	–	–	–	–	–	–	–
CN1CCN(c2cc(-c3cccc4[nH]ccc34)c3nc(-c4ccccc4)cn3n2)CC1 [listing 2 of 2 here]	5.08	–	–	–	–	–	–	–	–	–	–	–	–	–
CN1CCN(c2cc(-c3cccc4[nH]ccc34)c3nc(-c4ccc(F)cc4)cn3n2)CC1 [listing 1 of 2 here]	–	4.97	–	–	–	–	–	–	–	–	–	–	–	–
CN1CCN(c2cc(-c3ccsc3)c3nc(-c4ccccc4F)cn3n2)CC1	5.72	–	8 µM (≈ 3.15 µg/mL)	8 µM (≈ 3.15 µg/mL)	3.7	8 µM (≈ 3.15 µg/mL)	8 µM (≈ 3.15 µg/mL)	8 µM (≈ 3.15 µg/mL)	8 µM (≈ 3.15 µg/mL)	8 µM (≈ 3.15 µg/mL)	14.6 µM	8 µM (≈ 3.15 µg/mL)	16 µM (≈ 6.3 µg/mL)	8 µM (≈ 3.15 µg/mL)
CN1CCN(c2cc(-c3cccs3)c3nc(-c4ccc(F)cc4)cn3n2)CC1	5.07	–	–	–	–	–	–	–	–	–	–	–	–	–
CN1CCN(c2cc(-c3cnc(N4CCN(C)CC4)nc3)c3nc(-c4ccccc4F)cn3n2)CC1	5.40	–	4 µM (≈ 1.95 µg/mL)	4 µM (≈ 1.95 µg/mL)	2	4 µM (≈ 1.95 µg/mL)	4 µM (≈ 1.95 µg/mL)	4 µM (≈ 1.95 µg/mL)	16 µM (≈ 7.8 µg/mL)	4 µM (≈ 1.95 µg/mL)	9.6 µM	4 µM (≈ 1.95 µg/mL)	4 µM (≈ 1.95 µg/mL)	16 µM (≈ 7.8 µg/mL)
OCCN1CCN(c2cc(-c3ccsc3)c3nc(-c4ccccc4)cn3n2)CC1	5.59	–	8 µM (≈ 3.24 µg/mL)	8 µM (≈ 3.24 µg/mL)	3.4	8 µM (≈ 3.24 µg/mL)	8 µM (≈ 3.24 µg/mL)	16 µM (≈ 6.49 µg/mL)	8 µM (≈ 3.24 µg/mL)	8 µM (≈ 3.24 µg/mL)	13.1 µM	8 µM (≈ 3.24 µg/mL)	8 µM (≈ 3.24 µg/mL)	4 µM (≈ 1.62 µg/mL)
COc1ccccc1-c1cn2nc(N3CCN(C)CC3)cc(-c3cccc4[nH]ccc34)c2n1	< 4.80	–	–	–	–	–	–	–	–	–	–	–	–	–
OCCN1CCN(c2cc(-c3cccc4[nH]ccc34)c3nc(-c4ccc(F)cc4)cn3n2)CC1	< 4.80	–	–	–	–	–	–	–	–	–	–	–	–	–
CN1CCN(c2cc(-c3ccc(N)nc3)c3nc(-c4ccccc4F)cn3n2)CC1	5.01	–	–	–	–	–	–	–	–	–	–	–	–	–
OCCN1CCN(c2cc(-c3ccsc3)c3nc(-c4ccccc4F)cn3n2)CC1	5.89	–	8 µM (≈ 3.39 µg/mL)	8 µM (≈ 3.39 µg/mL)	4	4 µM (≈ 1.69 µg/mL)	4 µM (≈ 1.69 µg/mL)	8 µM (≈ 3.39 µg/mL)	8 µM (≈ 3.39 µg/mL)	8 µM (≈ 3.39 µg/mL)	10.5 µM	8 µM (≈ 3.39 µg/mL)	8 µM (≈ 3.39 µg/mL)	8 µM (≈ 3.39 µg/mL)
CN1CCN(c2cc(-c3ccc4[nH]ccc4c3)c3nc(-c4ccc(F)cc4)cn3n2)CC1	5.47	–	8 µM (≈ 3.41 µg/mL)	4 µM (≈ 1.71 µg/mL)	2.6	4 µM (≈ 1.71 µg/mL)	4 µM (≈ 1.71 µg/mL)	8 µM (≈ 3.41 µg/mL)	8 µM (≈ 3.41 µg/mL)	4 µM (≈ 1.71 µg/mL)	9 µM	8 µM (≈ 3.41 µg/mL)	4 µM (≈ 1.71 µg/mL)	16 µM (≈ 6.82 µg/mL)
OCCN1CCN(c2cc(-c3ccsc3)c3nc(-c4cccc(F)c4)cn3n2)CC1	6.05	–	4 µM (≈ 1.69 µg/mL)	4 µM (≈ 1.69 µg/mL)	8.2	8 µM (≈ 3.39 µg/mL)	4 µM (≈ 1.69 µg/mL)	8 µM (≈ 3.39 µg/mL)	8 µM (≈ 3.39 µg/mL)	8 µM (≈ 3.39 µg/mL)	10.7 µM	8 µM (≈ 3.39 µg/mL)	8 µM (≈ 3.39 µg/mL)	4 µM (≈ 1.69 µg/mL)
CN1CCN(c2cc(-c3cnn(C)c3)c3nc(-c4ccc(F)cc4)cn3n2)CC1 [listing 2 of 2 here]	–	5.42	16 µM (≈ 6.26 µg/mL)	16 µM (≈ 6.26 µg/mL)	3.1	> 16 µM	> 16 µM	> 16 µM	> 16 µM	16 µM (≈ 6.26 µg/mL)	9 µM	> 16 µM	> 16 µM	> 16 µM
CC(C)CCn1cc(-c2cc(N3CCN(C)CC3)nn3cc(-c4ccc(F)cc4)nc23)cn1	4.99	–	–	–	–	–	–	–	–	–	–	–	–	–
COc1ccccc1-c1cn2nc(N3CCN(C)CC3)cc(-c3ccsc3)c2n1	5.24	–	–	–	–	–	–	–	–	–	–	–	–	–
CN1CCN(c2cc(-c3cnc(N4CCN(C)CC4)nc3)c3nc(-c4ccc(F)cc4)cn3n2)CC1	5.54	–	4 µM (≈ 1.95 µg/mL)	4 µM (≈ 1.95 µg/mL)	6.8	4 µM (≈ 1.95 µg/mL)	8 µM (≈ 3.9 µg/mL)	4 µM (≈ 1.95 µg/mL)	8 µM (≈ 3.9 µg/mL)	4 µM (≈ 1.95 µg/mL)	12.3 µM	4 µM (≈ 1.95 µg/mL)	4 µM (≈ 1.95 µg/mL)	8 µM (≈ 3.9 µg/mL)
CN1CCN(c2cc(-c3cnc(N4CCN(C)CC4)nc3)c3nc(-c4cccc(F)c4)cn3n2)CC1	5.33	–	4 µM (≈ 1.95 µg/mL)	2 µM (≈ 0.975 µg/mL)	5.5	4 µM (≈ 1.95 µg/mL)	4 µM (≈ 1.95 µg/mL)	4 µM (≈ 1.95 µg/mL)	4 µM (≈ 1.95 µg/mL)	4 µM (≈ 1.95 µg/mL)	10.5 µM	4 µM (≈ 1.95 µg/mL)	4 µM (≈ 1.95 µg/mL)	8 µM (≈ 3.9 µg/mL)
CN1CCN(c2cc(-c3ccsc3)c3nc(-c4ccccc4)cn3n2)CC1	5.46	–	8 µM (≈ 3 µg/mL)	8 µM (≈ 3 µg/mL)	5.1	8 µM (≈ 3 µg/mL)	4 µM (≈ 1.5 µg/mL)	8 µM (≈ 3 µg/mL)	8 µM (≈ 3 µg/mL)	8 µM (≈ 3 µg/mL)	10.2 µM	8 µM (≈ 3 µg/mL)	8 µM (≈ 3 µg/mL)	8 µM (≈ 3 µg/mL)
CN1CCN(c2cc(-c3cccc4[nH]ccc34)c3nc(-c4ccc(F)cc4)cn3n2)CC1 [listing 2 of 2 here]	–	5.77	8 µM (≈ 3.41 µg/mL)	8 µM (≈ 3.41 µg/mL)	7.5	8 µM (≈ 3.41 µg/mL)	8 µM (≈ 3.41 µg/mL)	16 µM (≈ 6.82 µg/mL)	8 µM (≈ 3.41 µg/mL)	8 µM (≈ 3.41 µg/mL)	12.9 µM	8 µM (≈ 3.41 µg/mL)	8 µM (≈ 3.41 µg/mL)	8 µM (≈ 3.41 µg/mL)
CN1CCN(c2cc(-c3cccc4[nH]ccc34)c3nc(-c4ccccc4F)cn3n2)CC1	5.04	–	–	–	–	–	–	–	–	–	–	–	–	–
CN1CCN(c2cc(-c3ccsc3)c3nc(-c4ccc(F)cc4)cn3n2)CC1 [listing 2 of 2 here]	–	5.26	–	–	–	–	–	–	–	–	–	–	–	–
